The record followed here is PubChem BioAssay AID250 (DTP/NCI, 2004).

Several values for one entry are separate records, joined by “and”; a condition that tells them apart may be missing. Identical values can stand only once. Inconclusive results and toxic doses are left out.

This test relates to BDF1 mice, L1210 leukemia sc, survival T/C. As to the kind of experiment: NCI In Vivo Anticancer Drug Screen. Data for tumor model L1210 Leukemia (subcutaneous) in B6D2F1 (BDF1) mice. The following applies: endpoint: median survival time, higher = longer survival. A digest of the protocol:
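Tumors were transplanted into mice, the animals were treated with compound, survival or tumor size was then measured, and treated values were divided by vehicle-control values.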

The mark [1] stands for this setting: dose: 65.0 mg/kg/injection, schedule: Q01DX Z (sc), vehicle: methylcellulose (MC).
The mark [2] stands for this setting: dose: 108.0 mg/kg/injection, schedule: Q01DX Z (sc), vehicle: methylcellulose (MC).
Setting [3] is: dose: 180.0 mg/kg/injection, schedule: Q01DX Z (sc), vehicle: methylcellulose (MC).
Where [4] appears, read: dose: 300.0 mg/kg/injection, schedule: Q01DX Z (sc), vehicle: methylcellulose (MC).
[5] abbreviates: dose: 500.0 mg/kg/injection, schedule: Q01DX Z (sc), vehicle: methylcellulose (MC).

For the compound `C=CC(O)CN1CC1` (stereo not given), the T/C is 100 % of control (dose: 0.65 mg/kg/injection, schedule: Q01DX Z (sc), vehicle: saline); 100 % of control (dose: 1.08 mg/kg/injection, schedule: Q01DX Z (sc), vehicle: saline); 100 % of control (dose: 1.7 mg/kg/injection, schedule: Q01DX Z (sc), vehicle: saline); 100 % of control (dose: 1.8 mg/kg/injection, schedule: Q01DX Z (sc), vehicle: saline); 111 % of control (dose: 2.8 mg/kg/injection, schedule: Q01DX Z (sc), vehicle: saline); 104 % of control (dose: 3.0 mg/kg/injection, schedule: Q02DX Z (sc), vehicle: saline). In addition, the T/C (dose: 4.7 mg/kg/injection, schedule: Q01DX Z (sc), vehicle: saline) was 160 % of control; the T/C (dose: 5.0 mg/kg/injection, schedule: Q01DX Z (sc), vehicle: saline) is 155 % of control and 159 % of control and 163 % of control; the T/C (dose: 5.0 mg/kg/injection, schedule: Q02DX Z (sc), vehicle: saline) was 118 % of control; the T/C (dose: 7.8 mg/kg/injection, schedule: Q01DX Z (sc), vehicle: saline) is 170 % of control and 177 % of control; the T/C (dose: 8.4 mg/kg/injection, schedule: Q01DX Z (sc), vehicle: saline) is 122 % of control; the T/C (dose: 8.4 mg/kg/injection, schedule: Q## X Z (sc), vehicle: saline) was 109 % of control. For the same compound, the T/C is 113 % of control (dose: 14.0 mg/kg/injection, schedule: Q01DX Z (sc), vehicle: saline); 181 % of control (dose: 14.0 mg/kg/injection, schedule: Q02DX Z (sc), vehicle: saline); 118 % of control (dose: 14.0 mg/kg/injection, schedule: Q## X Z (sc), vehicle: saline); 110 % of control (dose: 21.6 mg/kg/injection, schedule: Q01DX Z (sc), vehicle: saline); 100 % of control (dose: 23.0 mg/kg/injection, schedule: Q01DX Z (sc), vehicle: saline); 150 % of control (dose: 23.0 mg/kg/injection, schedule: Q02DX Z (sc), vehicle: saline). Further, the T/C was 154 % of control (dose: 23.0 mg/kg/injection, schedule: Q## X Z (sc), vehicle: saline); 111 % of control (dose: 36.0 mg/kg/injection, schedule: Q01DX Z (sc), vehicle: saline); 159 % of control (dose: 39.0 mg/kg/injection, schedule: Q## X Z (sc), vehicle: saline); 100 % of control (dose: 60.0 mg/kg/injection, schedule: Q01DX Z (sc), vehicle: saline); 118 % of control (dose: 65.0 mg/kg/injection, schedule: Q01DX001 (sc), vehicle: saline); 104 % of control (dose: 65.0 mg/kg/injection, schedule: Q02DX Z (sc), vehicle: saline). Further, the T/C (dose: 65.0 mg/kg/injection, schedule: Q## X Z (sc), vehicle: saline) was 109 % of control.
For `CS(=O)(=O)OCC(=O)NCCNC(=O)COS(C)(=O)=O`, the T/C was 105 % of control (dose: 39.0 mg/kg/injection, schedule: Q01DX Z (sc), vehicle: methylcellulose (MC)); 105 % of control under setting [1]; 110 % of control under setting [2]; 110 % of control under setting [3]; 115 % of control under setting [4]; 100 % of control under setting [5].
Take `CCC(=O)O[C@H]1CC[C@H]2[C@@H]3CC[C@H]4CC(=O)[C@H](C)C[C@]4(C)[C@H]3CC[C@]12C`: the T/C runs as follows: (dose: 23.0 mg/kg/injection, schedule: Q01DX Z (sc), vehicle: methylcellulose (MC)) 100 % of control; under setting [1], 100 % of control; under setting [2], 100 % of control; under setting [3], 100 % of control.
Take `OC(CBr)C(O)C(O)C(O)CBr` (stereo not given): the T/C runs as follows: (dose: 108.0 mg/kg/injection, schedule: Q01DX009 (ip), vehicle: steriod suspending solution) 105 % of control; (dose: 108.0 mg/kg/injection, schedule: Q01DX009 (sc), vehicle: steriod suspending solution) 100 % of control; (dose: 180.0 mg/kg/injection, schedule: Q01DX009 (ip), vehicle: steriod suspending solution) 116 % of control; (dose: 180.0 mg/kg/injection, schedule: Q01DX009 (sc), vehicle: steriod suspending solution) 111 % of control; (dose: 180.0 mg/kg/injection, schedule: Q04DX003 (ip), vehicle: steriod suspending solution) 100 % of control; (dose: 180.0 mg/kg/injection, schedule: Q04DX003 (sc), vehicle: steriod suspending solution) 105 % of control. Further, the T/C runs as follows: (dose: 300.0 mg/kg/injection, schedule: Q01DX009 (ip), vehicle: steriod suspending solution) 122 % of control; (dose: 300.0 mg/kg/injection, schedule: Q01DX009 (sc), vehicle: steriod suspending solution) 116 % of control; (dose: 300.0 mg/kg/injection, schedule: Q04DX003 (ip), vehicle: steriod suspending solution) 111 % of control; (dose: 300.0 mg/kg/injection, schedule: Q04DX003 (sc), vehicle: steriod suspending solution) 111 % of control; (dose: 500.0 mg/kg/injection, schedule: Q01DX009 (sc), vehicle: steriod suspending solution) 155 % of control; (dose: 500.0 mg/kg/injection, schedule: Q04DX003 (ip), vehicle: steriod suspending solution) 100 % of control. Further, the T/C is, setting by setting: (dose: 500.0 mg/kg/injection, schedule: Q04DX003 (sc), vehicle: steriod suspending solution) 105 % of control; (dose: 833.0 mg/kg/injection, schedule: Q04DX003 (ip), vehicle: steriod suspending solution) 122 % of control; (dose: 833.0 mg/kg/injection, schedule: Q04DX003 (sc), vehicle: steriod suspending solution) 122 % of control; (dose: 1388.0 mg/kg/injection, schedule: Q01DX009 (sc), vehicle: other) 111 % of control; (dose: 1388.0 mg/kg/injection, schedule: Q01DX009 (sc), vehicle: steriod suspending solution) 110 % of control; (dose: 1388.0 mg/kg/injection, schedule: Q01DX015 (sc), vehicle: other) 110 % of control. The T/C (dose: 1388.0 mg/kg/injection, schedule: Q01DX015 (sc), vehicle: steriod suspending solution) was 110 % of control.
As for `CC(=O)c1ccc(NC(=O)N(CCCl)N=O)cc1`, the T/C is 183 % of control (dose: 39.0 mg/kg/injection, schedule: Q01DX Z (sc), vehicle: carboxymethylcellulose (CMC)) and 211 % of control (dose: 65.0 mg/kg/injection, schedule: Q01DX Z (sc), vehicle: carboxymethylcellulose (CMC)).
As for `OC(c1ccccc1)c1nc2ccccc2[nH]1` (stereo not given), the T/C is, setting by setting: under setting [2], 100 % of control; under setting [3], 100 % of control; under setting [4], 100 % of control; under setting [5], 100 % of control; (dose: 840.0 mg/kg/injection, schedule: Q01DX Z (sc), vehicle: methylcellulose (MC)) 100 % of control.
Take `O=C(Nc1ccc(C2=NCCN2)cc1)c1ccc(C(=O)Nc2ccc(C3=NCCN3)cc2)c(NC(=O)c2ccc(C(=O)Nc3cc(C(=O)Nc4ccc(C5=NCCN5)cc4)ccc3C(=O)Nc3ccc(C4=NCCN4)cc3)cc2)c1`: the T/C runs as follows: (dose: 23.0 mg/kg/injection, schedule: Q01DX Z (sc), vehicle: water) 110 % of control; (dose: 39.0 mg/kg/injection, schedule: Q01DX Z (sc), vehicle: water) 100 % of control; (dose: 65.0 mg/kg/injection, schedule: Q01DX Z (sc), vehicle: water) 100 % of control; (dose: 108.0 mg/kg/injection, schedule: Q01DX Z (sc), vehicle: water) 100 % of control; (dose: 180.0 mg/kg/injection, schedule: Q01DX Z (sc), vehicle: water) 100 % of control; (dose: 300.0 mg/kg/injection, schedule: Q01DX Z (sc), vehicle: water) 100 % of control.
Consider `O=C1NC(O)CCN1C1OC(CO)C(O)C1O` (stereo not given), for which the T/C is, setting by setting: (dose: 125.0 mg/kg/injection, schedule: Q06HX018 (sc), vehicle: saline) 102 % of control; (dose: 125.0 mg/kg/injection, schedule: Q## X018 (sc), vehicle: saline) 102 % of control; (dose: 250.0 mg/kg/injection, schedule: Q06HX018 (sc), vehicle: saline) 102 % of control; (dose: 250.0 mg/kg/injection, schedule: Q## X018 (sc), vehicle: saline) 102 % of control; (dose: 500.0 mg/kg/injection, schedule: Q06HX018 (sc), vehicle: saline) 108 % of control; (dose: 500.0 mg/kg/injection, schedule: Q## X018 (sc), vehicle: saline) 108 % of control. In addition, the T/C runs as follows: (dose: 1000.0 mg/kg/injection, schedule: Q06HX018 (sc), vehicle: saline) 107 % of control; (dose: 1000.0 mg/kg/injection, schedule: Q## X018 (sc), vehicle: saline) 107 % of control.
